Test results: ChEMBL document CHEMBL1201862, “PubChem BioAssay data set” (2004)
Active and inactive are the calls of the source.

How the values were obtained:
[1] = insulin promoter down-regulators in MIN6 cells, imaging, high-content screening, mouse beta cells (AID 1628); assay type: functional
[2] = cytotoxicity in MIN6 insulinoma cells, dose response, cytotoxicity control, cell-based, mouse insulinoma (AID 2122); assay type: functional;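 note: confirmatory high-throughput counterscreen run to flag cytotoxic compounds; mouse MIN-6 beta cells carrying an insulin promoter eGFP reporter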
[3] = inhibitors of intracellular T. cruzi replication, confirmation, NIH3T3 host cells, beta-gal luminescence (AID 2044); assay type: functional, cell-based;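 note: intracellular parasites grown in NIH/3T3 mouse fibroblasts as host cells; luminescent beta-galactosidase reporter signal from transgenic T. cruzi replicating inside host cells; inhibitors lower the luminescence signal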
[4] = cytotoxicity toward NIH3T3 fibroblasts, dose response, counter-screen, cell-based, ATP luminescence, mouse fibroblasts (AID 2010); assay type: functional;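 note: cells exposed to compound for about 90 hours before reading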
[5] = Shn3 3'UTR reporter inhibitors, dose response, cell-based, Clone20 osteoblasts, firefly luciferase, cherry-picked (AID 624132); assay type: functional;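 note: firefly luciferase luminescence from reporter carrying the Shn3 3'UTR in osteoblasts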
[6] = HepG2 cell cytotoxicity, dose response, cytotoxicity control for Shn3 inhibitor project, CellTiter-Glo, cherry-picked (AID 624134); assay type: functional, cell-based
[7] = control 3'UTR Renilla luciferase suppression, dose response, counter-screen for Shn3 inhibitor project, cell-based, Clone20-Shn3RL, cherry-picked (AID 624133); assay type: functional
Vero [8] = assay: cells; assay type: functional, cell-based; details: Chlorocebus sabaeus
[9] = test system: Streptococcus sp. 'group A'; assay: growth inhibition of control SK(-) GAS strain, dose response, counter-screen for streptokinase expression inhibitor project, luminescence, kanamycin, BacTiterGlo, confirmation (AID 1900); assay type: functional, organism-based
Beta-galactosidase = Beta-galactosidase (Escherichia coli, UniProt Q8VNN2); assay: PubChem AID 485352; assay type: functional
Chain of Beta-galactosidase (Q8VNN2 whole entry): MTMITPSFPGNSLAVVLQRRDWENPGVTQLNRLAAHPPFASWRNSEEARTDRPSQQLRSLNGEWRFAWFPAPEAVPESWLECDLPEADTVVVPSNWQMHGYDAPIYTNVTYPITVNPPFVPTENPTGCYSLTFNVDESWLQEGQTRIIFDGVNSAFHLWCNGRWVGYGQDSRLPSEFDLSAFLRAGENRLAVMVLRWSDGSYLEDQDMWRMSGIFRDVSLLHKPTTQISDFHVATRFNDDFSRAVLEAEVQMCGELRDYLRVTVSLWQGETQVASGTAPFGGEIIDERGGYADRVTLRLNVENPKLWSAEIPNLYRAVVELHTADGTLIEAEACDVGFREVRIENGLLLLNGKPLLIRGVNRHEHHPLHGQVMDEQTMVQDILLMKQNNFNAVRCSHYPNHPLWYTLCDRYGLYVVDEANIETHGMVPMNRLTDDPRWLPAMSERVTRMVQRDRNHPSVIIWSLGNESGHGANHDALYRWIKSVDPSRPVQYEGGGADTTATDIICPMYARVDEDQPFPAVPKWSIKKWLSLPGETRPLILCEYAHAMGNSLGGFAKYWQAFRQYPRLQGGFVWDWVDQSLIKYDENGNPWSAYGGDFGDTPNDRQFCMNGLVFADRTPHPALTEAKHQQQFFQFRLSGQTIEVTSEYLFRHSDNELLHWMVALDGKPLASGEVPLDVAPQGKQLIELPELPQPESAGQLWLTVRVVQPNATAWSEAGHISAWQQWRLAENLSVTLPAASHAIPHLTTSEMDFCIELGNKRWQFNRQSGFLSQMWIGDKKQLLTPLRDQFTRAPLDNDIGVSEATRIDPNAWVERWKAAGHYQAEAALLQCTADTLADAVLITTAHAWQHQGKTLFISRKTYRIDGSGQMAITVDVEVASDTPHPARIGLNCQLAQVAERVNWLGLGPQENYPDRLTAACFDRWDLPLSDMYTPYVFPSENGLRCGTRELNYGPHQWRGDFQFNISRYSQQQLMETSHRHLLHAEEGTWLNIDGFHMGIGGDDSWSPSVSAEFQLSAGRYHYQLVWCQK

Streptokinase A = biological target: T1, Streptokinase A (Streptococcus pyogenes serotype M1, UniProt P10520); assay: S. pyogenes streptokinase expression inhibitors, potency, dose response, plasminogen activation absorbance, OD405 (AID 1914); assay type: functional, Streptococcus pyogenes M1 GAS;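 note: secreted streptokinase activity via plasminogen activation per viability signal from cell pellet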
T1 sequence (P10520 whole entry): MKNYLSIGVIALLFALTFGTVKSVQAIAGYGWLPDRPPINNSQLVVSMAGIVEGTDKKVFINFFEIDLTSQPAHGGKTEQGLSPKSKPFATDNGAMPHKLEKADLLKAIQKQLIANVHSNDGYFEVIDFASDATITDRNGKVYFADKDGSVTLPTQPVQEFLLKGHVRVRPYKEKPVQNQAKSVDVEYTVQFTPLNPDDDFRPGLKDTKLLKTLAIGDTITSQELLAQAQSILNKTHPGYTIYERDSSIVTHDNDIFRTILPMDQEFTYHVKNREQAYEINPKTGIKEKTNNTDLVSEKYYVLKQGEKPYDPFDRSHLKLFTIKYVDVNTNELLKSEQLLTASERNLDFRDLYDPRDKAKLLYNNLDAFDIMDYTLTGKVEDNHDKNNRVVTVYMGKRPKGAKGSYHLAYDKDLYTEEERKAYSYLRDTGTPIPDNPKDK

[10] = biological target: T2, Type-1 angiotensin II receptor (Homo sapiens, UniProt P30556); assay: AT1 receptor antagonists, dose response, selectivity assay for APJ receptor antagonist project, cell-based, uHTS hits (AID 463214); assay type: functional;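 note: antagonist potency against angiotensin II stimulated AT1 response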
T2 sequence (P30556 whole entry): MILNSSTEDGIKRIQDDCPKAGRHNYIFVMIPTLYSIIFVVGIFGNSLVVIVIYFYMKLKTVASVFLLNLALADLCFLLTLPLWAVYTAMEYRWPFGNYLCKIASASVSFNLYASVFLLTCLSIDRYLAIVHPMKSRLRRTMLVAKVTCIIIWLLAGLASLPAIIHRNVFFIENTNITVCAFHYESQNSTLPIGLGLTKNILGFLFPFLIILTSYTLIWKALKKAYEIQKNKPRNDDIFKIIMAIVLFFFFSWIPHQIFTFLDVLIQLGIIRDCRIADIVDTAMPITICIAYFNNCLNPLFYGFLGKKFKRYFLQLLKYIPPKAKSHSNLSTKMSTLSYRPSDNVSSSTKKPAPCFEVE

Streptococcus = assay: Group A Streptococcus viability loss, dose response, counter-screen for streptokinase expression inhibitor project, luminescence, BacTiterGlo (AID 1915); assay type: functional, organism-based;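 note: potency for reduction of bacterial viability or growth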
[11] = biological target: Glucose-6-phosphate 1-dehydrogenase (Homo sapiens, UniProt P11413); assay: human G6PD enzyme inhibitors, dose response, selectivity assay for P. falciparum G6PD inhibitor project, biochemical, fluorescence (AID 504792); assay type: functional
Chain of Glucose-6-phosphate 1-dehydrogenase (P11413 whole entry): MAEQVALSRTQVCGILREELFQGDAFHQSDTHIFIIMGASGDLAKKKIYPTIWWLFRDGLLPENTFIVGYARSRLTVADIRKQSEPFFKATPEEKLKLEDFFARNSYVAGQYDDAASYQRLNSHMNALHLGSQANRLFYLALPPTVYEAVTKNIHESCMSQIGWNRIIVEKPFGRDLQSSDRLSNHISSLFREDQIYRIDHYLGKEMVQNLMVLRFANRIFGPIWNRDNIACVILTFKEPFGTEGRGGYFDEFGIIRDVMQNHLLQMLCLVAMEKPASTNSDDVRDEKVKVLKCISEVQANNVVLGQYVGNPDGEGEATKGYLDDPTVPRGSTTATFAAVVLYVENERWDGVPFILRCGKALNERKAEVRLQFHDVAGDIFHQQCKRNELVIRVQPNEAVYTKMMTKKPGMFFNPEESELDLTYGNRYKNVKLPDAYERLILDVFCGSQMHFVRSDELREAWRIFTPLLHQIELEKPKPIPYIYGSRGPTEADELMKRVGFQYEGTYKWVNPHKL

Vero [12] = assay: Vero cell cytotoxicity, cytotoxicity control for flavivirus capping enzyme inhibitors (AID 588742); assay type: functional; details: Chlorocebus sabaeus
Genome polyprotein = Genome polyprotein (dengue virus type 2, UniProt P29990); assay: Dengue-2 NS5 methyltransferase inhibitors, primary screen, biochemical, confirmation dose response (AID 588689); assay type: functional
Chain of Genome polyprotein (P29990 2492-3391 limits assumed): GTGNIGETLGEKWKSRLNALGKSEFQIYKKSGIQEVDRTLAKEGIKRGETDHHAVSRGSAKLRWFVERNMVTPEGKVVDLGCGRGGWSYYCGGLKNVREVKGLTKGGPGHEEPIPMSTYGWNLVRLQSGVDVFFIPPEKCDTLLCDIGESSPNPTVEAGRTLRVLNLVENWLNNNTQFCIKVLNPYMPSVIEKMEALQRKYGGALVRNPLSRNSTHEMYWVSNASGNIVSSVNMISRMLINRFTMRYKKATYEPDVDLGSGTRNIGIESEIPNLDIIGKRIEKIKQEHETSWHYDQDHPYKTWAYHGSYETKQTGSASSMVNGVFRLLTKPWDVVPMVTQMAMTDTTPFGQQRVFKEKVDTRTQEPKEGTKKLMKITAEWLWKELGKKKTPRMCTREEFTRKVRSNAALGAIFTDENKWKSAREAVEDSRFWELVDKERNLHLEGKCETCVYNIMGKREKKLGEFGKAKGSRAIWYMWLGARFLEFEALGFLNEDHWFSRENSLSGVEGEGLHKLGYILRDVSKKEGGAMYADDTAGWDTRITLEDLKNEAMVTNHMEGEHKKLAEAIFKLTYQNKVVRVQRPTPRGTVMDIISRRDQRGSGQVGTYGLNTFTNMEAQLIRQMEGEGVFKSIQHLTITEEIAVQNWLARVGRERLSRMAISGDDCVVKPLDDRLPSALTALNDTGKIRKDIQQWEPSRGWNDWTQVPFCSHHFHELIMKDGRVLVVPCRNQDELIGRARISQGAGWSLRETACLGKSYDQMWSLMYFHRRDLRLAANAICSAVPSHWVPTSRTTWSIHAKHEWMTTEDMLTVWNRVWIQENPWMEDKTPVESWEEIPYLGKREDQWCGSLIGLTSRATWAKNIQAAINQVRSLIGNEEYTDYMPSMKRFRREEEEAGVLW

Fatty acid synthase [13] = biological target: T3, Fatty acid synthase (Homo sapiens, UniProt P49327); assay: FAS thioesterase domain inhibitors, dose response, biochemical, endpoint fluorescence intensity, uHTS hits (AID 624327); assay type: functional;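 note: fluorescence from hydrolysis of an O-methyl fluorescein acyl ester substrate by the enzyme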
T3 sequence (P49327 whole entry, the tested form may be a part): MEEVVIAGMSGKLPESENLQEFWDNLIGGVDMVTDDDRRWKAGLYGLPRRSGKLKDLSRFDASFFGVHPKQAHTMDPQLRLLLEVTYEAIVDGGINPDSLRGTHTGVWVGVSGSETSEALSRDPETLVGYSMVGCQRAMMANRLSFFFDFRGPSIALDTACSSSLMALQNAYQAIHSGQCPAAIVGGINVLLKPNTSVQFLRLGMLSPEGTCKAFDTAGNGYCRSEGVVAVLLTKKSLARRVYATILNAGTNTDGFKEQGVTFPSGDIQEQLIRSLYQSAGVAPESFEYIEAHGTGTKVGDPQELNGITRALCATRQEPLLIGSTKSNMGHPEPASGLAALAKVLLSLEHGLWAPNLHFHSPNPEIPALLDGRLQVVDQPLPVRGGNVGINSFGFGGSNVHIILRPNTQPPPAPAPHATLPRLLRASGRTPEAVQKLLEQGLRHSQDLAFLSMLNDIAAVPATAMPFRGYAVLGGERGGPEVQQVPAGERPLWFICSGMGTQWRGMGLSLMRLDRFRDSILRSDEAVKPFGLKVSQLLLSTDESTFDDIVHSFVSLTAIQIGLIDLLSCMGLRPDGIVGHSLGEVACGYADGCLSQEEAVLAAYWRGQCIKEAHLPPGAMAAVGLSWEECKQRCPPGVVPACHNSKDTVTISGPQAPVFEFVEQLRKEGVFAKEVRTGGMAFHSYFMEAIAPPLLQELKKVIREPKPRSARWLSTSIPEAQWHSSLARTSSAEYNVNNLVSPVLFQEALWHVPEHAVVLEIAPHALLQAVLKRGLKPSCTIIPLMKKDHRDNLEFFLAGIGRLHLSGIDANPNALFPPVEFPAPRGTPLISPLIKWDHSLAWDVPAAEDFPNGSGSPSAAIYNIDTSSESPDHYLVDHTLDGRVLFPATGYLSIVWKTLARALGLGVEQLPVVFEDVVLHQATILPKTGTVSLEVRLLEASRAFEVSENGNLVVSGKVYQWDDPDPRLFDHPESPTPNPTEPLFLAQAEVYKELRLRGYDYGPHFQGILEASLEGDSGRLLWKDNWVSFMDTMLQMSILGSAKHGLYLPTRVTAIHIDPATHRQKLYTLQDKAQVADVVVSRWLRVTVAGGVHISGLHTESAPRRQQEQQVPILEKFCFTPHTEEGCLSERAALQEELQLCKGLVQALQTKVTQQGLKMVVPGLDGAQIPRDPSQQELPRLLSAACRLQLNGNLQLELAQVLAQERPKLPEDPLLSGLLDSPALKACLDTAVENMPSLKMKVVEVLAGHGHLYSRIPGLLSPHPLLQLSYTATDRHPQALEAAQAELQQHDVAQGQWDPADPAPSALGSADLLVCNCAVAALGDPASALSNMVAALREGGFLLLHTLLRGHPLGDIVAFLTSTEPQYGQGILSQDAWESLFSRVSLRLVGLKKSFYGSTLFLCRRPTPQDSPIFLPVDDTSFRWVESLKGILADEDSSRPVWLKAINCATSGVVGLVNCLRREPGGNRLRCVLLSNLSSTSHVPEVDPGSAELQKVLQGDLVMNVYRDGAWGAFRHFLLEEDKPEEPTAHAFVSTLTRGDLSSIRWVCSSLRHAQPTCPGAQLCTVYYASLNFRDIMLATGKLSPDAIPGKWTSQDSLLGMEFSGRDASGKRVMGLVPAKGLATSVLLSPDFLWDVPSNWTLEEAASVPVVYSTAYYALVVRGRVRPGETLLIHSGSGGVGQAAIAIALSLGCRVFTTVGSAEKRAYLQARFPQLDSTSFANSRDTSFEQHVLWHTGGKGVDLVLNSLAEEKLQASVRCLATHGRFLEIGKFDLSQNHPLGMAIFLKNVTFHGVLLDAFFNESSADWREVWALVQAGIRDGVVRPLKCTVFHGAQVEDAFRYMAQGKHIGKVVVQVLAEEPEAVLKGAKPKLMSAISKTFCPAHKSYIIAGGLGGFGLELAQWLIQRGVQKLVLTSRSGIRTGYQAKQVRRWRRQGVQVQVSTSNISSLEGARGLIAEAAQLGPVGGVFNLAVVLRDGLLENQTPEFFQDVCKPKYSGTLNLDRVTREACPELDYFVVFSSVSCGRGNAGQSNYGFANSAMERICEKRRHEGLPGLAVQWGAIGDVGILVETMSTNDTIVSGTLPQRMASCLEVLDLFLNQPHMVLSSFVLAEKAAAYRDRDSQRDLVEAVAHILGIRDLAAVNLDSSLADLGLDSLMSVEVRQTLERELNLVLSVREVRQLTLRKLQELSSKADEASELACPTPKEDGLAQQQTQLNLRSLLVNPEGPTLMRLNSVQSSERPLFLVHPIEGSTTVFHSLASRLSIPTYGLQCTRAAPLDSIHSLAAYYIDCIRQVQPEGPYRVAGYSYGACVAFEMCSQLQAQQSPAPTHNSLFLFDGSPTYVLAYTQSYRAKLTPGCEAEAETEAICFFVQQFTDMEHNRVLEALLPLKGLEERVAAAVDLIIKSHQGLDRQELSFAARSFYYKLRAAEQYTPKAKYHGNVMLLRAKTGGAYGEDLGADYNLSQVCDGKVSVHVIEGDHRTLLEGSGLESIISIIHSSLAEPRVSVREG

Fatty acid synthase [14] = biological target: T3, Fatty acid synthase; assay: FAS thioesterase domain inhibitors, dose response, biochemical, kinetic fluorescence intensity (AID 624326); assay type: functional;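 note: rate of fluorescence rise from hydrolysis of a fluorogenic O-methyl fluorescein ester substrate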
Vero [15] = assay: host cell cytotoxicity of antiviral hits, dose response, cytotoxicity control for West Nile virus antiviral project, secondary assay (AID 1650); assay type: functional; details: Chlorocebus sabaeus
[16] = Luminescence Cell-Based Dose Retest to Confirm Inhibitors of Cancer Stem Cells. [Related pubchem assays (depositor defined):AID2717, AID2721]; assay type: functional; details: Homo sapiens

SMILES	IC50 [1]	IC50 [2]	EC50 [3]	EC50 [4]	AC50 [5]	AC50 [6]	AC50 [7]	EC50 [9]	EC50 (Streptokinase A)	EC50 (Streptococcus)	further results
CC(C)(C)c1ccc(CN(Cc2ccccc2)C(c2ccccn2)c2nnnn2C(C)(C)C)cc1 (configuration not stated)	3.07 µM (active)	3.84 µM (active)	1.76 µM (active)	> 60 µM (not active)	13.5 µM (active)	67.9 µM (active)	24.2 µM (active)	–	–	–	–
CC(C)(C)c1ccc(C(=O)NC(=S)Nc2sc3c(c2C#N)CCC3)cc1	–	–	–	–	–	–	–	–	–	–	IC50 (Vero [8]): > 25 µM (active)
CC(=O)OCCCNc1cc(Sc2nc3ccccc3s2)c2nonc2c1[N+](=O)[O-]	–	–	1.38 µM (active)	4.76 µM (active)	4.7 µM (active)	24.4 µM (active)	11.3 µM (active)	3.26 µM (active)	> 150 µM (not active)	3.7 µM (active)	EC50 (Beta-galactosidase): > 40 µM (inactive); IC50 [10]: 2.06 µM (active); IC50 [11]: > 80 µM (inactive); CC50 (Vero [12]): 16.8 µM (active); IC50 (Genome polyprotein): > 100 µM (active); IC50 (Fatty acid synthase [13]): 2.08 µM (active); IC50 (Fatty acid synthase [14]): 1.35 µM (active)
CC(=O)[C@@]1(O)C(C)CC2C3C=C(C)C4=Cc5c(cnn5-c5ccccc5)C[C@]4(C)C3C(O)C[C@@]21C (some centres not stated)	< 0.25 µM (active)	> 16 µM (inactive)	–	–	–	–	–	5.57 µM (active)	2.97 µM (active)	> 150 µM (not active)	CC50 (Vero [15]): > 100 µM (active); AC50 [16]: 1.15 µM (active)
CCOC(=O)N1CCC(N(C(=O)Nc2ccc(Cl)c(Cl)c2)C(C)CC)CC1 (configuration not stated)	2.7 µM (active)	2.45 µM (active)	–	–	–	–	–	–	–	–	–
